This is an account of results in patent publication US5785963A, “Polymeric hydantoin quaternary compounds, methods of making” (Lonza, Inc., priority 1996, dated 1998).

The data set has as its system bovine corneas. As to the kind of experiment: BCOP (Bovine Corneal Opacity and Permeability) assay of ocular irritancy. The procedure:
A BCOP (Bovine Corneal Opacity and Permeability) assay was carried out on polyhydantoin quat compounds of the invention using a test system developed by Gautheron et al.L, "Bovine Corneal Opacity and Permeability Test: An in Vitro Assay of Ocular Irritancy" Fundamental and Applied Toxicology, 18: 442-449 (1992). The system measures two important properties which are predictive of irritation: corneal opacity and permeability. The following classification system for in vitro scores was used:
from 25.1 to 55=moderate irritant
from 55.1 and above=severe irritant
Two polyhydantoin quaternary compounds, having formulas IV and V, were tested using known antimicrobial compositions, ethanol and a didecyl dimethyl ammonium chloride (Bardac 2250, Lonza Inc., Fair Lawn, N.J.), as controls. The test samples were prepared as 0.1% active solutions in distilled water.
In this test, bovine corneas (from slaughterhouse animals) were mounted between two tissue culture media reservoirs in holders which function both as treatment chambers and as cuvettes for subsequent direct measurement of corneal opacity. […]
After completion of the incubation period, the resultant damage was assessed both by quantitative measurement of opacity change, and by indirect measurement of corneal cell damage as evidenced by increased passage of fluorescein.

As for `CCO` [Ethanol, ethanol], the “BCOP SCORE” value amounted to 68.7.
